{"source": "paper PMC10508264", "about": "“Exploring the antioxidant, antimicrobial, cytotoxic and biothermodynamic properties of novel morpholine derivative bioactive Mn(II), Co(II) and Ni(II) complexes – combined experimental and theoretical measurements towards DNA/BSA/SARS-CoV-2 3CL^Pro” (RSC Medicinal Chemistry, 2023)", "key": {"CT-DNA": {"tested_on": "CT-DNA", "experiment": "DNA binding by UV-vis absorption titration", "settings": "for % H (hypochromism): Tris-HCl pH 7.4, 25 °C; for Kb, BH-I (Benesi–Hildebrand method I) / Kb, BH-II (Benesi–Hildebrand method II) / Kb, SK-I (Sakthi–Krause method I) / Kb, SK-II (Sakthi–Krause method II) / Kb, WS-I (Wolfe–Shimmer method I) / Kb, WS-II (Wolfe–Shimmer method II): pH 7.4, 25 °C", "protocol": "The DNA-binding experiment was conducted with an electronic absorption spectrophotometer by raising the DNA concentration from zero to 50 μM to the given concentration of all samples (50 μM) in Tris-HCl buffer (5 mM Tris-HCl/50 mM NaCl) with a pH of 7.4 at 25 °C.[13,23–26]\nMost medications involve intercalation and groove binding via GC (guanine/cytosine)-rich and AT (adenine/thymine)-rich domains, respectively. The interactions were determined experimentally by electronic absorption spectrum titration. Moreover, intercalating binding is indicated by bathochromic and hypochromic shifts in the absorption spectra, whereas groove binding of the complexes with DNA is indicated by hyperchromic shifts in the titration curve.[61] Generally, four kinds of non-covalent engagements that can be absolutely critical in the interaction of substances with DNA are most frequently illustrated in the literature: (i) involves a negatively charged phosphate fragment as a result of electrostatic interaction; (ii) influences weak van der Waals force attraction/H-bonding; (iii) interaction of a functional moiety with the grooves (major/minor) of the double-stranded DNA as a result of a molecule sticking due to general attraction, or as a result of water or H-bonding expulsion, etc.; (iv) the stacked base pairs of natural DNA are intercalated by hydrophobic forces. Nevertheless, substances are engaged in the reaction because of […] preferred N-7 position and adenine's N-3 location in DNA. The DNA base pairing may also be prevented due to miscoding. All complexes (1–3), including free ligand (HL), were measured both when DNA was present and when it was absent using ultraviolet–visible spectrophotometric absorption titrations in buffer solution with a pH of 7.4 at 25 °C (Fig. 3). In this case, all substances were exposed to two prominent electronic absorption bands of about 260 nm and 335–343 nm, consequent to the π–π* transitions of the phenyl chromophore and MLCT, respectively. While the amount of DNA in each compound rises, the interaction of the chemical substance with DNA base pairs generates noticeable alterations in the strength and wavelength of the intra-ligand charge transfer bands. […] Using Wolfe–Shimmer eqn (1) and (2), Benesi–Hildebrand eqn (3) and (4) and Sakthi–Krause eqn (5) and (6), the observed overall Kb values for all samples were in the following sequence: (2) > (3) > (1) > (HL). […] It is concluded that the co-planarity of the morpholine-linked ligand and complexation of the 2,2′-bipyridine aromatic system with the metal centre promote the ability of the complex to infiltrate DNA base pairs smoothly. Large aromatic systems may also assist the complex to deeply penetrate the core of the phosphate backbone, and those substances may permit the complex to freely penetrate deep into the DNA base pairs. […] The Wolfe–Shimmer eqn (1) and (2),[62] Benesi–Hildebrand eqn (3) and (4),[63] and Sakthi–Krause eqn (5) and (6) were applied to evaluate the Kb results for all samples, which were obtained by modification of the Lineweaver–Burk and Stern–Volmer equations (Table 1).\nThe Kb values were measured using the Wolfe–Shimmer eqn (1) and (2) from the linear regression plots of [DNA]/(εa − εf) vs. [DNA] M^−1 for method I and (εb − εf)/(εa − εf) vs. 1/[DNA] M^−1 for method II, respectively (Fig. S15 ^†). The Benesi–Hildebrand binding constant (Kb) values were measured using eqn (3) and (4) from the linear regression plots of [1/(Ax − A0)] vs. {1/[DNA]} M^−1 for method I and [(Amax − A0)/(Ax − A0)] vs. {1/[DNA]} M^−1 for method II, respectively (Fig. S16 ^†). The Kb values were estimated using Sakthi–Krause eqn (5) and (6) from the linear regression plots of [A/(A0 − A)] vs. {1/[DNA]} M^−1 for method I (Fig. S17 ^†) and {1/[DNA]} vs. log[A/(A0 − A)] M^−1 for method II (Fig. S18 ^†). In addition, A0 and A represent the absorbance intensity values in the absence and presence of [DNA], respectively. […]"}, "Candida albicans": {"tested_on": "Candida albicans", "experiment": "Agar disc diffusion, strain I", "format": "cell-based", "parameters": "Inhibition%: concentration or dose not given beside the values", "settings": "for Diameter of clear zone inhibition: control 6 mm"}}}
{"smiles": "[Mn+2].[O-]c1ccccc1N=Cc1ccc(N2CCOCC2)cc1.[O-]c1ccccc1N=Cc1ccc(N2CCOCC2)cc1.c1ccc(-c2ccccn2)nc1", "note": "[(1)]", "values": [{"measurement": "% H (hypochromism)", "setting": "CT-DNA", "value": 40.61, "unit": "%"}, {"measurement": "Kb, BH-I (Benesi–Hildebrand method I)", "setting": "CT-DNA", "value": 9942, "unit": "M⁻¹"}, {"measurement": "Kb, BH-II (Benesi–Hildebrand method II)", "setting": "CT-DNA", "value": 21067, "unit": "M⁻¹"}, {"measurement": "Kb, SK-I (Sakthi–Krause method I)", "setting": "CT-DNA", "value": 11049, "unit": "M⁻¹"}, {"measurement": "Kb, SK-II (Sakthi–Krause method II)", "setting": "CT-DNA", "value": 20389, "unit": "M⁻¹"}, {"measurement": "Kb, WS-I (Wolfe–Shimmer method I)", "setting": "CT-DNA", "value": 18195, "unit": "M⁻¹"}, {"measurement": "Kb, WS-II (Wolfe–Shimmer method II)", "setting": "CT-DNA", "value": 20826, "unit": "M⁻¹"}, {"measurement": "Inhibition%", "setting": "Candida albicans", "value": 57, "unit": "%"}, {"measurement": "Diameter of clear zone inhibition", "setting": "Candida albicans", "value": 14, "unit": "mm"}]}
{"smiles": "[Co+2].[O-]c1ccccc1N=Cc1ccc(N2CCOCC2)cc1.[O-]c1ccccc1N=Cc1ccc(N2CCOCC2)cc1.c1ccc(-c2ccccn2)nc1", "note": "[(2)]", "values": [{"measurement": "% H (hypochromism)", "setting": "CT-DNA", "value": 36.16, "unit": "%"}, {"measurement": "Kb, BH-I (Benesi–Hildebrand method I)", "setting": "CT-DNA", "value": 10468, "unit": "M⁻¹"}, {"measurement": "Kb, BH-II (Benesi–Hildebrand method II)", "setting": "CT-DNA", "value": 21524, "unit": "M⁻¹"}, {"measurement": "Kb, SK-I (Sakthi–Krause method I)", "setting": "CT-DNA", "value": 14965, "unit": "M⁻¹"}, {"measurement": "Kb, SK-II (Sakthi–Krause method II)", "setting": "CT-DNA", "value": 22526, "unit": "M⁻¹"}, {"measurement": "Kb, WS-I (Wolfe–Shimmer method I)", "setting": "CT-DNA", "value": 18806, "unit": "M⁻¹"}, {"measurement": "Kb, WS-II (Wolfe–Shimmer method II)", "setting": "CT-DNA", "value": 21379, "unit": "M⁻¹"}, {"measurement": "Inhibition%", "setting": "Candida albicans", "value": 50, "unit": "%"}, {"measurement": "Diameter of clear zone inhibition", "setting": "Candida albicans", "value": 12, "unit": "mm"}]}
{"smiles": "[Ni+2].[O-]c1ccccc1N=Cc1ccc(N2CCOCC2)cc1.[O-]c1ccccc1N=Cc1ccc(N2CCOCC2)cc1.c1ccc(-c2ccccn2)nc1", "note": "[(3)]", "values": [{"measurement": "% H (hypochromism)", "setting": "CT-DNA", "value": 43.46, "unit": "%"}, {"measurement": "Kb, BH-I (Benesi–Hildebrand method I)", "setting": "CT-DNA", "value": 18212, "unit": "M⁻¹"}, {"measurement": "Kb, BH-II (Benesi–Hildebrand method II)", "setting": "CT-DNA", "value": 20938, "unit": "M⁻¹"}, {"measurement": "Kb, SK-I (Sakthi–Krause method I)", "setting": "CT-DNA", "value": 13001, "unit": "M⁻¹"}, {"measurement": "Kb, SK-II (Sakthi–Krause method II)", "setting": "CT-DNA", "value": 20417, "unit": "M⁻¹"}, {"measurement": "Kb, WS-I (Wolfe–Shimmer method I)", "setting": "CT-DNA", "value": 18207, "unit": "M⁻¹"}, {"measurement": "Kb, WS-II (Wolfe–Shimmer method II)", "setting": "CT-DNA", "value": 21275, "unit": "M⁻¹"}, {"measurement": "Inhibition%", "setting": "Candida albicans", "value": 63, "unit": "%"}, {"measurement": "Diameter of clear zone inhibition", "setting": "Candida albicans", "value": 16, "unit": "mm"}]}
{"smiles": "Oc1ccccc1N=Cc1ccc(N2CCOCC2)cc1", "note": "[(HL), 2-(4-morpholinobenzylideneamino)phenol]", "values": [{"measurement": "% H (hypochromism)", "setting": "CT-DNA", "value": 37.13, "unit": "%"}, {"measurement": "Kb, BH-I (Benesi–Hildebrand method I)", "setting": "CT-DNA", "value": 6000, "unit": "M⁻¹"}, {"measurement": "Kb, BH-II (Benesi–Hildebrand method II)", "setting": "CT-DNA", "value": 19515, "unit": "M⁻¹"}, {"measurement": "Kb, SK-I (Sakthi–Krause method I)", "setting": "CT-DNA", "value": 8775, "unit": "M⁻¹"}, {"measurement": "Kb, SK-II (Sakthi–Krause method II)", "setting": "CT-DNA", "value": 17216, "unit": "M⁻¹"}, {"measurement": "Kb, WS-I (Wolfe–Shimmer method I)", "setting": "CT-DNA", "value": 15169, "unit": "M⁻¹"}, {"measurement": "Kb, WS-II (Wolfe–Shimmer method II)", "setting": "CT-DNA", "value": 15480, "unit": "M⁻¹"}, {"measurement": "Inhibition%", "setting": "Candida albicans", "value": 40, "unit": "%"}, {"measurement": "Diameter of clear zone inhibition", "setting": "Candida albicans", "value": 10, "unit": "mm"}]}
